According to PubChem BioAssay (NCI):
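Cells were grown in 96-well plates and exposed to each compound for 48 hours at five concentrations; endpoints were interpolated linearly between bracketing concentrations, or set to the highest concentration if not reached. TGI is the concentration that stops growth completely.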

Experiments:
Experiment in all cases: DTP human tumour cell line panel, 48 h
ACHN renal = tested on: ACHN renal
RXF 393 renal = tested on: RXF 393 renal
K-562 leukemia = tested on: K-562 leukemia
HCC-2998 colon = tested on: HCC-2998 colon
OVCAR-8 ovarian = tested on: OVCAR-8 ovarian
SN12C renal = tested on: SN12C renal
NCI-H226 lung = tested on: NCI-H226 lung
786-0 renal = tested on: 786-0 renal
MDA-MB-435 = tested on: MDA-MB-435
UO-31 renal = tested on: UO-31 renal
SF-295 CNS = tested on: SF-295 CNS
SNB-75 CNS = tested on: SNB-75 CNS
UACC-257 melanoma = tested on: UACC-257 melanoma
KM12 colon = tested on: KM12 colon
TK-10 renal = tested on: TK-10 renal
OVCAR-3 ovarian = tested on: OVCAR-3 ovarian
SK-MEL-28 melanoma = tested on: SK-MEL-28 melanoma
HOP-92 NSCLC = tested on: HOP-92 NSCLC
NCI-H460 lung = tested on: NCI-H460 lung
HL-60(TB) leukemia = tested on: HL-60(TB) leukemia
HCT-15 colon = tested on: HCT-15 colon
EKVX NSCLC = tested on: EKVX NSCLC
UACC-62 melanoma = tested on: UACC-62 melanoma
MOLT-4 leukemia = tested on: MOLT-4 leukemia
M14 melanoma = tested on: M14 melanoma
T-47D breast = tested on: T-47D breast
NCI-H23 lung = tested on: NCI-H23 lung
IGROV1 ovarian = tested on: IGROV1 ovarian
PC-3 prostate = tested on: PC-3 prostate
MDA-N = tested on: MDA-N
A498 renal = tested on: A498 renal
HOP-62 NSCLC = tested on: HOP-62 NSCLC
HS 578T breast = tested on: HS 578T breast
CCRF-CEM leukemia = tested on: CCRF-CEM leukemia
SF-268 CNS = tested on: SF-268 CNS
SK-OV-3 ovarian = tested on: SK-OV-3 ovarian
U251 CNS = tested on: U251 CNS
HT29 colon = tested on: HT29 colon
DU-145 prostate = tested on: DU-145 prostate
SF-539 CNS = tested on: SF-539 CNS
SK-MEL-5 melanoma = tested on: SK-MEL-5 melanoma
MCF7 breast = tested on: MCF7 breast
NCI/ADR-RES ovarian = tested on: NCI/ADR-RES ovarian
SR leukemia = tested on: SR leukemia
BT-549 breast = tested on: BT-549 breast
HCT-116 colon = tested on: HCT-116 colon
SW-620 colon = tested on: SW-620 colon
RPMI-8226 leukemia = tested on: RPMI-8226 leukemia
COLO 205 colon = tested on: COLO 205 colon
SNB-19 CNS = tested on: SNB-19 CNS
A549 NSCLC = tested on: A549 NSCLC
MALME-3M melanoma = tested on: MALME-3M melanoma
OVCAR-5 ovarian = tested on: OVCAR-5 ovarian
NCI-H522 lung = tested on: NCI-H522 lung
SK-MEL-2 melanoma = tested on: SK-MEL-2 melanoma
OVCAR-4 ovarian = tested on: OVCAR-4 ovarian
CAKI-1 renal = tested on: CAKI-1 renal
MDA-MB-231 breast = tested on: MDA-MB-231 breast
LOX IMVI melanoma = tested on: LOX IMVI melanoma

c1ccc2c(c1)nc1ccccn12
TGI (ACHN renal): > 100 µM | TGI (RXF 393 renal): > 100 µM | TGI (K-562 leukemia): > 100 µM | TGI (HCC-2998 colon): > 100 µM | TGI (OVCAR-8 ovarian): > 100 µM | TGI (SN12C renal): > 100 µM | TGI (NCI-H226 lung): > 100 µM | TGI (786-0 renal): > 100 µM | TGI (MDA-MB-435): > 100 µM | TGI (UO-31 renal): > 100 µM | TGI (SF-295 CNS): > 100 µM | TGI (SNB-75 CNS): > 100 µM | TGI (UACC-257 melanoma): > 100 µM | TGI (KM12 colon): > 100 µM | TGI (TK-10 renal): > 100 µM | TGI (OVCAR-3 ovarian): > 100 µM | TGI (SK-MEL-28 melanoma): > 100 µM | TGI (HOP-92 NSCLC): > 100 µM | TGI (NCI-H460 lung): > 100 µM | TGI (HL-60(TB) leukemia): > 100 µM | TGI (HCT-15 colon): > 100 µM | TGI (EKVX NSCLC): > 100 µM | TGI (UACC-62 melanoma): > 100 µM | TGI (MOLT-4 leukemia): > 100 µM | TGI (M14 melanoma): > 100 µM | TGI (T-47D breast): > 100 µM | TGI (NCI-H23 lung): > 100 µM | TGI (IGROV1 ovarian): > 100 µM | TGI (PC-3 prostate): > 100 µM | TGI (MDA-N): > 100 µM | TGI (A498 renal): 29.5 µM | TGI (HOP-62 NSCLC): > 100 µM | TGI (HS 578T breast): > 100 µM | TGI (CCRF-CEM leukemia): > 100 µM | TGI (SF-268 CNS): > 100 µM | TGI (SK-OV-3 ovarian): > 100 µM | TGI (U251 CNS): > 100 µM | TGI (HT29 colon): > 100 µM | TGI (DU-145 prostate): > 100 µM | TGI (SF-539 CNS): > 100 µM | TGI (SK-MEL-5 melanoma): > 100 µM | TGI (MCF7 breast): > 100 µM | TGI (NCI/ADR-RES ovarian): > 100 µM | TGI (SR leukemia): > 100 µM | TGI (BT-549 breast): > 100 µM | TGI (HCT-116 colon): > 100 µM | TGI (SW-620 colon): > 100 µM | TGI (RPMI-8226 leukemia): > 100 µM | TGI (COLO 205 colon): > 100 µM | TGI (SNB-19 CNS): > 100 µM | TGI (A549 NSCLC): > 100 µM | TGI (MALME-3M melanoma): > 100 µM | TGI (OVCAR-5 ovarian): > 100 µM

CC(C)N(C(C)C)S(=O)(=O)CC12CCC(C/C1=N\O)C2 (centres undefined)
TGI (ACHN renal): > 100 µM | TGI (NCI-H522 lung): > 100 µM | TGI (RXF 393 renal): > 100 µM | TGI (K-562 leukemia): > 100 µM | TGI (HCC-2998 colon): > 100 µM | TGI (OVCAR-8 ovarian): > 100 µM | TGI (SN12C renal): > 100 µM | TGI (NCI-H226 lung): > 100 µM | TGI (786-0 renal): > 100 µM | TGI (SK-MEL-2 melanoma): > 100 µM | TGI (MDA-MB-435): > 100 µM | TGI (UO-31 renal): > 100 µM | TGI (OVCAR-4 ovarian): > 100 µM | TGI (SF-295 CNS): > 100 µM | TGI (SNB-75 CNS): > 100 µM | TGI (UACC-257 melanoma): > 100 µM | TGI (KM12 colon): > 100 µM | TGI (TK-10 renal): > 100 µM | TGI (CAKI-1 renal): > 100 µM | TGI (OVCAR-3 ovarian): > 100 µM | TGI (SK-MEL-28 melanoma): > 100 µM | TGI (NCI-H460 lung): > 100 µM | TGI (HL-60(TB) leukemia): > 100 µM | TGI (HCT-15 colon): > 100 µM | TGI (EKVX NSCLC): > 100 µM | TGI (UACC-62 melanoma): > 100 µM | TGI (MOLT-4 leukemia): > 100 µM | TGI (M14 melanoma): > 100 µM | TGI (T-47D breast): > 100 µM | TGI (NCI-H23 lung): > 100 µM | TGI (IGROV1 ovarian): > 100 µM | TGI (PC-3 prostate): > 100 µM | TGI (MDA-N): > 100 µM | TGI (HOP-62 NSCLC): > 100 µM | TGI (MDA-MB-231 breast): > 100 µM | TGI (HS 578T breast): > 100 µM | TGI (CCRF-CEM leukemia): > 100 µM | TGI (LOX IMVI melanoma): > 100 µM | TGI (SF-268 CNS): > 100 µM | TGI (SK-OV-3 ovarian): > 100 µM | TGI (U251 CNS): > 100 µM | TGI (HT29 colon): > 100 µM | TGI (DU-145 prostate): > 100 µM | TGI (SF-539 CNS): > 100 µM | TGI (SK-MEL-5 melanoma): > 100 µM | TGI (MCF7 breast): > 100 µM | TGI (NCI/ADR-RES ovarian): > 100 µM | TGI (SR leukemia): > 100 µM | TGI (BT-549 breast): > 100 µM | TGI (HCT-116 colon): > 100 µM | TGI (SW-620 colon): > 100 µM | TGI (COLO 205 colon): > 100 µM | TGI (SNB-19 CNS): > 100 µM | TGI (A549 NSCLC): > 100 µM | TGI (MALME-3M melanoma): > 100 µM | TGI (OVCAR-5 ovarian): > 100 µM
